Values quoted from earlier work in article PMC7032176 (Asian Journal of Pharmaceutical Sciences, 2018).

Experiments:
[1] = at 25 °C

In the case of CC(C)(Sc1cc(C(C)(C)C)c(O)c(C(C)(C)C)c1)Sc1cc(C(C)(C)C)c(O)c(C(C)(C)C)c1 [Probucol], the oral bioavailability is listed as “up to 6%” and the water solubility [1] is listed as “about 5 ng/ml”.
